Test results published in patent US20250011307A1, “CRYSTALLINE FORMS OF BIARYL YAP/TAZ-TEAD PROTEIN-PROTEIN INTERACTION INHIBITORS” (Novartis AG, priority 2021, published 2025).
Structures can show the parent of a compound that is named as a salt.

Tests used:
Format in all cases: physicochemical
[1] = Solubility after equilibration at 25° C. for 24 h, with final pH and XRPD of solid residues; details: Compound B forms
[2] = Solid state bulk stability stress test (HPLC degradation products, color, XRPD); set-up: key to CL color: A: No change; B: Slight discoloration; C: Medium discoloration; D: Strong discoloration; details: Compound B forms
[3] = Excipient compatibility stress test (HPLC degradation products, color); set-up: key to CL color: A: No change; B: Slight discoloration; C: Medium discoloration; D: Strong discoloration; details: Compound B forms
[4] = Xenon light stress test of bulk (HPLC degradation products, color, XRPD); set-up: key to CL color: A: No change; B: Slight discoloration; C: Medium discoloration; D: Strong discoloration; details: Compound B forms, Xenon light (1200 kLuxh, 25° C.)
Procedure: (§1) X-ray powder diffraction (XRPD) patterns were obtained using a Bruker Advance D8 in reflection geometry. Powders were analyzed using a zero background Si flat sample holder. The radiation used was Cu Kα (A=1.5418 Å). Patterns were measured between 2° and 40° 2theta. • Sample amount: 5-10 mg • Sample holder: zero background Si flat sample holder
as §1, with “radiation” for “radiation used”, “(λ=1.5418” for “(A=1.5418”

[5] = Hygroscopicity (loss on drying by TGA and XRPD, as is and after storage at 92% / 80% RH); details: Compound B forms
[6] = Blank FaSSIF, target concentration 2 mg/mL
[7] = FaSSIF V2 pH 6.5, target concentration 2 mg/mL
[8] = FeSSIF V2 pH 5.8, target concentration 2 mg/mL
[9] = SGF pH 2.0, target concentration 2 mg/mL
[10] = Water, target concentration 2 mg/mL
[11] = pH 1.2, 100 mM HCl, target concentration 2 mg/mL
[12] = pH 3.0, 50 mM citrate buffer, target concentration 2 mg/mL
[13] = pH 4.7, 50 mM acetate buffer, target concentration 2 mg/mL
[14] = pH 6.8, 50 mM phosphate buffer with 50 mM Na taurocholate
[15] = pH 6.8, 50 mM phosphate buffer with 50 mM Na taurocholate, target concentration 2 mg/mL
[16] = pH 6.8, 50 mM phosphate buffer, target concentration 2 mg/mL
[17] = 2 weeks 50° C./75% RH, 1% in HGC powder
[18] = 2 weeks 50° C./75% RH, 1% in HPMC powder
[19] = 2 weeks 50° C./closed, 1% in HGC powder
[20] = 2 weeks 50° C./closed, 1% in HPMC powder
[21] = After 1 day at 92% RH, TGA temperature per cell: free form @233° C., succinate @205° C., L-malate @200° C., L-lactate @200° C.
[22] = Hygroscopicity, As is, TGA temperature per cell: free form @233° C., succinate @205° C., L-malate @200° C., L-lactate @200° C.

## CNC[C@]1(c2ccccc2)Oc2cc(F)c(Cl)c(-c3c(C(N)=O)ccc(OC)c3F)c2[C@@H]1C [Compound B Free form, amorphous, 2-((2S,3S,4S)-5-Chloro-6-fluoro-3-methyl-2-((methylamino)methyl)-2-phenyl-2,3-dihydrobenzofuran-4-yl)-3-fluoro-4-methoxybenzamide]
[1]; Blank FaSSIF
  final pH: [7.36]
[1]; [6]
  Sol. (solubility): 1490 µg/mL
[1]; FaSSIF V2 pH 6.5
  final pH: [7.19]
[1]; [7]
  Sol. (solubility): 1150 µg/mL
[1]; FeSSIF V2 pH 5.8
  final pH: [6.01]
[1]; [8]
  Sol. (solubility): >2000 µg/mL
[1]; SGF pH 2.0
  final pH: [2.22]
[1]; [9]
  Sol. (solubility): >2000 µg/mL
[1]; Water
  final pH: [8.78]
[1]; [10]
  Sol. (solubility): 70 µg/mL
[1]; pH 1.2, 100 mM HCl
  final pH: [1.16]
[1]; [11]
  Sol. (solubility): >2000 µg/mL
[1]; pH 3.0, 50 mM citrate buffer
  final pH: [3.08]
[1]; [12]
  Sol. (solubility): >2000 µg/mL
[1]; pH 4.7, 50 mM acetate buffer
  final pH: [4.84]
[1]; [13]
  Sol. (solubility): >2000 µg/mL
[1]; pH 6.8, 50 mM phosphate buffer
  final pH: [6.90]
[1]; [14]
  final pH: [6.72]
[1]; [15]
  Sol. (solubility): >2000 µg/mL
[1]; [16]
  Sol. (solubility): >2000 µg/mL
[2]; 2 weeks 50° C./75% RH
  Bulk (XRPD): gel-like
  CL color: A
  DP[%] degradation products, Bulk (HPLC): 4.84%
[2]; 2 weeks 80° C./11% RH
  Bulk (XRPD): gel-like
  CL color: C
  DP[%] degradation products, Bulk (HPLC): 13.00%
[2]; 2 weeks 80° C./75% RH
  Bulk (XRPD): gel-like
  CL color: C
  DP[%] degradation products, Bulk (HPLC): 14.88%
[3]; [17]
  CL color: A
  DP[%] degradation products: 2.50%
[3]; [18]
  CL color: A
  DP[%] degradation products: 4.33%
[3]; [19]
  CL color: A
  DP[%] degradation products: 1.87%
[3]; [20]
  CL color: A
  DP[%] degradation products: 2.02%
[4]; amber vial
  Bulk amber vial (XRPD): No change
  CL color: A
  DP[%] degradation products, Bulk amber vial (HPLC): 0.19%
[4]; clear quartz vial
  Bulk clear quartz vial (XRPD): No change
  CL color: C
  DP[%] degradation products, Bulk clear quartz vial (HPLC): 2.74%
[5]; [21]
  Loss on drying by TGA: 2.14%@233 °C
[5]; [22]
  Loss on drying by TGA: 1.30%@233 °C

## CNC[C@]1(c2ccccc2)Oc2cc(F)c(Cl)c(-c3c(C(N)=O)ccc(OC)c3F)c2[C@@H]1C [Compound B L-lactate salt, 2-((2S,3S,4S)-5-Chloro-6-fluoro-3-methyl-2-((methylamino)methyl)-2-phenyl-2,3-dihydrobenzofuran-4-yl)-3-fluoro-4-methoxybenzamide]
[1]; Blank FaSSIF
  final pH: [6.53]
[1]; FaSSIF V2 pH 6.5
  final pH: [6.48]
[1]; FeSSIF V2 pH 5.8
  final pH: [5.79]
[1]; SGF pH 2.0
  final pH: [2.24]
[1]; Water
  final pH: [7.03]
[1]; pH 1.2, 100 mM HCl
  final pH: [1.12]
[1]; pH 3.0, 50 mM citrate buffer
  final pH: [3.06]
[1]; pH 4.7, 50 mM acetate buffer
  final pH: [4.70]
[1]; pH 6.8, 50 mM phosphate buffer
  final pH: [6.79]
[1]; [14]
  final pH: [6.58]
[2]; 2 weeks 50° C./75% RH
  Bulk (XRPD): No change
  CL color: A
  DP[%] degradation products, Bulk (HPLC): 0.33%
[2]; 2 weeks 80° C./11% RH
  Bulk (XRPD): No change
  CL color: A
  DP[%] degradation products, Bulk (HPLC): 0.31%
[2]; 2 weeks 80° C./75% RH
  Bulk (XRPD): No change
  CL color: A
  DP[%] degradation products, Bulk (HPLC): 2.11%
[3]; [17]
  CL color: A
  DP[%] degradation products: 0.44%
[3]; [18]
  CL color: A
  DP[%] degradation products: 0.42%
[3]; [19]
  CL color: A
  DP[%] degradation products: 0.22%
[3]; [20]
  CL color: A
  DP[%] degradation products: 0.33%
[4]; amber vial
  Bulk amber vial (XRPD): No change
  CL color: A
  DP[%] degradation products, Bulk amber vial (HPLC): 0.17%
[4]; clear quartz vial
  Bulk clear quartz vial (XRPD): No change
  CL color: B
  DP[%] degradation products, Bulk clear quartz vial (HPLC): 0.38%
[5]; After 1 day at 80% RH
  XRPD: No change
[5]; After 1 day at 80% RH, @200° C.
  Loss on drying by TGA: 1.08%@200 °C
[5]; After 1 day at 92% RH
  XRPD: No change
[5]; [21]
  Loss on drying by TGA: 1.18%@200 °C
[5]; [22]
  Loss on drying by TGA: 0.92%@200 °C

## CNC[C@]1(c2ccccc2)Oc2cc(F)c(Cl)c(-c3c(C(N)=O)ccc(OC)c3F)c2[C@@H]1C [Compound B L-malate salt, 2-((2S,3S,4S)-5-Chloro-6-fluoro-3-methyl-2-((methylamino)methyl)-2-phenyl-2,3-dihydrobenzofuran-4-yl)-3-fluoro-4-methoxybenzamide]
[1]; Blank FaSSIF
  final pH: [6.04]
[1]; FaSSIF V2 pH 6.5
  final pH: [5.95]
[1]; FeSSIF V2 pH 5.8
  final pH: [5.74]
[1]; SGF pH 2.0
  final pH: [2.17]
[1]; Water
  final pH: [4.34]
[1]; pH 3.0, 50 mM citrate buffer
  final pH: [3.04]
[1]; pH 4.7, 50 mM acetate buffer
  final pH: [4.62]
[1]; pH 6.8, 50 mM phosphate buffer
  final pH: [6.59]
[2]; 2 weeks 80° C./11% RH
  DP[%] degradation products, Bulk (HPLC): 0.46%
[2]; 2 weeks 80° C./75% RH
  DP[%] degradation products, Bulk (HPLC): 2.84%
[3]; [17]
  DP[%] degradation products: 1.32%
[3]; [18]
  DP[%] degradation products: 2.65%
[3]; [19]
  DP[%] degradation products: 0.24%
[3]; [20]
  DP[%] degradation products: 0.36%
[4]; amber vial
  DP[%] degradation products, Bulk amber vial (HPLC): 0.16%
[4]; clear quartz vial
  DP[%] degradation products, Bulk clear quartz vial (HPLC): 1.53%
[5]; [21]
  Loss on drying by TGA: 0.83%@200 °C
[5]; [22]
  Loss on drying by TGA: 0.81%@200 °C

## CNC[C@]1(c2ccccc2)Oc2cc(F)c(Cl)c(-c3c(C(N)=O)ccc(OC)c3F)c2[C@@H]1C [Compound B Succinate salt, 2-((2S,3S,4S)-5-Chloro-6-fluoro-3-methyl-2-((methylamino)methyl)-2-phenyl-2,3-dihydrobenzofuran-4-yl)-3-fluoro-4-methoxybenzamide]
[1]; Blank FaSSIF
  final pH: [6.06]
[1]; [6]
  Sol. (solubility): >2000 µg/mL
[1]; FaSSIF V2 pH 6.5
  final pH: [6.06]
[1]; [7]
  Sol. (solubility): >2000 µg/mL
[1]; FeSSIF V2 pH 5.8
  final pH: [5.72]
[1]; [8]
  Sol. (solubility): >2000 µg/mL
[1]; SGF pH 2.0
  final pH: [2.20]
[1]; [9]
  Sol. (solubility): >2000 µg/mL
[1]; Water
  final pH: [4.97]
[1]; [10]
  Sol. (solubility): >2000 µg/mL
[1]; pH 1.2, 100 mM HCl
  final pH: [1.17]
[1]; [11]
  Sol. (solubility): >2000 µg/mL
[1]; pH 3.0, 50 mM citrate buffer
  final pH: [3.09]
[1]; [12]
  Sol. (solubility): >2000 µg/mL
[1]; pH 4.7, 50 mM acetate buffer
  final pH: [4.70]
[1]; [13]
  Sol. (solubility): >2000 µg/mL
[1]; pH 6.8, 50 mM phosphate buffer
  final pH: [6.64]
[1]; [14]
  final pH: [6.43]
[1]; [15]
  Sol. (solubility): >2000 µg/mL
[1]; [16]
  Sol. (solubility): >2000 µg/mL
[2]; 2 weeks 50° C./75% RH
  Bulk (XRPD): No change
  CL color: A
  DP[%] degradation products, Bulk (HPLC): 0.09%
[2]; 2 weeks 80° C./11% RH
  Bulk (XRPD): No change
  CL color: A
  DP[%] degradation products, Bulk (HPLC): 0.08%
[2]; 2 weeks 80° C./75% RH
  Bulk (XRPD): No change
  CL color: A
  DP[%] degradation products, Bulk (HPLC): 0.17%
[3]; [17]
  CL color: A
  DP[%] degradation products: 0.25%
[3]; [18]
  CL color: A
  DP[%] degradation products: 0.99%
[3]; [19]
  CL color: A
  DP[%] degradation products: 0.15%
[3]; [20]
  CL color: A
  DP[%] degradation products: 0.17%
[4]; amber vial
  Bulk amber vial (XRPD): No change
  CL color: A
  DP[%] degradation products, Bulk amber vial (HPLC): 0.13%
[4]; clear quartz vial
  Bulk clear quartz vial (XRPD): No change
  CL color: B
  DP[%] degradation products, Bulk clear quartz vial (HPLC): 2.38%
[5]; [21]
  Loss on drying by TGA: 0.67%@205 °C
[5]; [22]
  Loss on drying by TGA: 0.56%@205 °C
